In general, inhibition refers to the percentage by which the read-out fell short of the control.

Molecules are shown by their SMILES.

The source of these data is US12378248B2 (The United States of America, as represented by the …, priority 2018, dated 2025).

In one assay the target is T1, mA3AR (Mus musculus, UniProt Q61618).
T1 sequence (Q61618 1-319): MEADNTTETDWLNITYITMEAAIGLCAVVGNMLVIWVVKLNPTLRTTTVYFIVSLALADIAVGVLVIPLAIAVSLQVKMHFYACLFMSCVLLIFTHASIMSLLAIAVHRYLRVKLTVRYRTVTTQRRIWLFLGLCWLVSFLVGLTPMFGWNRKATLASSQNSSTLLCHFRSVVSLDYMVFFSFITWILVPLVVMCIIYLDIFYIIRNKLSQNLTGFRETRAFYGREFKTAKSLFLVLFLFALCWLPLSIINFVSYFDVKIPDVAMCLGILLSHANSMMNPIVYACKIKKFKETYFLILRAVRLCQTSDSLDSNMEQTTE
The assay is described as follows: Adenosine receptor binding, mA3AR.

The next assay deals with serotonin receptor 5HT2B (Homo sapiens, UniProt P41595). The assay is described as follows: Off-target interaction determined by the PDSP. The class given is binding. The following applies: read-out: Off-target, receptor (h, unless noted) (Ki, μM): 5HT2B.
The target in another assay is T2, hA2AAR (Homo sapiens, UniProt P29274).
T2 construct: expressed in transfected cells; host or cells: HEK293
The assay is described as follows: Radioligand binding in membranes of HEK293 cells expressing hA2AAR. The following applies: read-out: A2AAR % inhibition.

In a further assay the target is T3, mA1AR (Mus musculus, UniProt Q60612).
T3 sequence (Q60612 1-326): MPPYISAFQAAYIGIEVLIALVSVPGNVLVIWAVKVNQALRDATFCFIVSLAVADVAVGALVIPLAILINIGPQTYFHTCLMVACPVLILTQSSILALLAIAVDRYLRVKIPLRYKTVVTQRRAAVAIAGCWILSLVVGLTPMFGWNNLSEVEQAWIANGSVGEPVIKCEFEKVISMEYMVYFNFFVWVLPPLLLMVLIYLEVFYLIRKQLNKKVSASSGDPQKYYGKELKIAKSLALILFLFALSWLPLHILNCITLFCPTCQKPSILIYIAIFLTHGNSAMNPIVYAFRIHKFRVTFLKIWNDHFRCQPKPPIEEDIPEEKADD
The assay is described as follows: Adenosine receptor binding, mA1AR. The following applies: (m); Ki; read-out: A1AR % inhibition or Ki (converted).

The target of a further assay is mA2AAR (Mus musculus, UniProt Q60613). The assay is described as follows: Adenosine receptor binding, mA2AAR. As to conditions: read-out: A2AAR % inhibition (converted).
The target of a further assay is T4, hA3AR (Homo sapiens, UniProt P0DMS8).
T4 construct: expressed in transfected cells; host or cells: CHO
T4 sequence (P0DMS8 1-318): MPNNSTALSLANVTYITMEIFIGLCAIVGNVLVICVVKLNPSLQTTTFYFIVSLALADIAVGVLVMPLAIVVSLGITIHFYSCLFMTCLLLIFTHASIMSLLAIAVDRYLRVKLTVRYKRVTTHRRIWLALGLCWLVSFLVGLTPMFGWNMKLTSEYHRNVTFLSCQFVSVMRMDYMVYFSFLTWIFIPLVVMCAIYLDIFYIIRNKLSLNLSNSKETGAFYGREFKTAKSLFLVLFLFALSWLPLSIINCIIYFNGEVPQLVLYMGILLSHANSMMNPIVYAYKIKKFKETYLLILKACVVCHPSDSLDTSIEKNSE
The assay is described as follows: Radioligand binding in membranes of CHO cells expressing hA3AR. The following applies: read-out: A3AR % inhibition or Ki.

For a further assay, the target named is T5, hA1AR (Homo sapiens, UniProt P30542).
T5 construct: expressed in transfected cells; host or cells: CHO
T5 sequence (P30542 1-326): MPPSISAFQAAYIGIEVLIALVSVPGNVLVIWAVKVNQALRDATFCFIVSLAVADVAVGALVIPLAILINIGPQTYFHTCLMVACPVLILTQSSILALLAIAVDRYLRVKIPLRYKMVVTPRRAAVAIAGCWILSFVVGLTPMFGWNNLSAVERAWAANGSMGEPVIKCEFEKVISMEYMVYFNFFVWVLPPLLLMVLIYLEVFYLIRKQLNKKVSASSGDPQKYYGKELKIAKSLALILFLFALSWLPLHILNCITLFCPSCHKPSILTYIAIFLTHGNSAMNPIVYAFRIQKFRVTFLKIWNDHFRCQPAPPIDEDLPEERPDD
The assay is described as follows: Radioligand binding in membranes of CHO cells expressing hA1AR, [3H]N6-R-phenylisopropyladenosine. The following applies: read-out: A1AR % inhibition or Ki.

The target in assay [1] is kappa (KOR) opioid receptor (Homo sapiens, UniProt P41145). The assay is described as follows: Off-target interaction determined by the PDSP. The format is binding. As to conditions: read-out: Off-target, receptor (h, unless noted) (Ki, μM): KOR.
A further assay has as its target sigma receptor σ2 (UniProt Q5BJF2). The assay is described as follows: Off-target interaction determined by the PDSP. The format is binding, human. As to conditions: read-out: Off-target, receptor (h, unless noted) (Ki, μM): σ2.
A further assay has as its target adrenergic receptor β3 (Homo sapiens, UniProt P13945). The assay is described as follows: Off-target interaction determined by the PDSP. The class given is binding. The following applies: read-out: Off-target, receptor (h, unless noted) (Ki, μM): β3.
The next assay concerns the target histamine receptor H3 (Homo sapiens, UniProt Q9Y5N1). The assay is described as follows: Off-target interaction determined by the PDSP. The format is binding. The following applies: read-out: Off-target, receptor (h, unless noted) (Ki, μM): H3.

T2 sequence (P29274 whole entry): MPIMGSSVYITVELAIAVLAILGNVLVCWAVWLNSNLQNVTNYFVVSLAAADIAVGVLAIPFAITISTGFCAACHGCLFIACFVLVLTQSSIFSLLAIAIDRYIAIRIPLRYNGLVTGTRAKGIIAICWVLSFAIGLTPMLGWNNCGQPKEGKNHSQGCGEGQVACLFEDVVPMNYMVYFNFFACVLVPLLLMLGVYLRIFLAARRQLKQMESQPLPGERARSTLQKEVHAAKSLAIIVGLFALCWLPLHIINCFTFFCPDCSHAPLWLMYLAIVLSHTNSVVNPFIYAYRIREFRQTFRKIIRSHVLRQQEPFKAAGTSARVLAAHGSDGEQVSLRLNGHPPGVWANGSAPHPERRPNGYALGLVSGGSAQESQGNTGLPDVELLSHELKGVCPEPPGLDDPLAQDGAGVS
serotonin receptor 5HT2B, sequence (P41595 whole entry): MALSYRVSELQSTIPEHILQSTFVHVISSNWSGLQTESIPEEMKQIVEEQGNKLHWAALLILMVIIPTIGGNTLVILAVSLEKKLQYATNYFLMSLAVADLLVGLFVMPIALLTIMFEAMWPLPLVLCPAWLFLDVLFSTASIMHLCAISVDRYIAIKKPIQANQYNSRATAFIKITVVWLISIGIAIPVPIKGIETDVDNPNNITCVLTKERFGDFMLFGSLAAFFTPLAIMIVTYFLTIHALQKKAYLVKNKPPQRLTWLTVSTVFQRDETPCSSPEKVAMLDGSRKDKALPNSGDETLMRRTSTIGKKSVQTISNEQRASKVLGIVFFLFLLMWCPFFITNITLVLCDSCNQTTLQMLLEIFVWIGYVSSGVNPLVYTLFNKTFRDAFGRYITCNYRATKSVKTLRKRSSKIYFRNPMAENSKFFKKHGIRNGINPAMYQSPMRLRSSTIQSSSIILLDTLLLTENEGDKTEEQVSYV
histamine receptor H3, sequence (Q9Y5N1 whole entry): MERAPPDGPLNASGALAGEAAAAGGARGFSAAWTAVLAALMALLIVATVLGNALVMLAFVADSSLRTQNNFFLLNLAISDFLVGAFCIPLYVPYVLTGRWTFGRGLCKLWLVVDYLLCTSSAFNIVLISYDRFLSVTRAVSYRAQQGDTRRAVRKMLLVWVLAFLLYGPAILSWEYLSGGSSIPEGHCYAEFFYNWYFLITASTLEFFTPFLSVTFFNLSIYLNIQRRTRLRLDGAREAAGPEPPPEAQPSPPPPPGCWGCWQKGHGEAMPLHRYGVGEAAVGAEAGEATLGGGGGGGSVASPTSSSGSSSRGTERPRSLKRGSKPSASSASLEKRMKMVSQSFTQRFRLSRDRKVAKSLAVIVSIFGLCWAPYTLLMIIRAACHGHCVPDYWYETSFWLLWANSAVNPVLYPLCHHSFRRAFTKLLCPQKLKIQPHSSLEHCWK
mA2AAR, sequence (Q60613 whole entry): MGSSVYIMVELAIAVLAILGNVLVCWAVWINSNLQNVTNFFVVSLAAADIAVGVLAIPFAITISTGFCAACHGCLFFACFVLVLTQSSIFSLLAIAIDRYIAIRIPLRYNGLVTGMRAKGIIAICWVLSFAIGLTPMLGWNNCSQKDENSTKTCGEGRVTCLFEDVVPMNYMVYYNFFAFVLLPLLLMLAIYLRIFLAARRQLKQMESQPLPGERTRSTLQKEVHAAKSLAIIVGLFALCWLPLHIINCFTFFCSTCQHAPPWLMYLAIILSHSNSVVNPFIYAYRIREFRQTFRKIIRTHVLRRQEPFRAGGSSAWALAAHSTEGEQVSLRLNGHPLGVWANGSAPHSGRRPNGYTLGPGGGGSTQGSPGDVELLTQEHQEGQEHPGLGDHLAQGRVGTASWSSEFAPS
adrenergic receptor β3, sequence (P13945 whole entry): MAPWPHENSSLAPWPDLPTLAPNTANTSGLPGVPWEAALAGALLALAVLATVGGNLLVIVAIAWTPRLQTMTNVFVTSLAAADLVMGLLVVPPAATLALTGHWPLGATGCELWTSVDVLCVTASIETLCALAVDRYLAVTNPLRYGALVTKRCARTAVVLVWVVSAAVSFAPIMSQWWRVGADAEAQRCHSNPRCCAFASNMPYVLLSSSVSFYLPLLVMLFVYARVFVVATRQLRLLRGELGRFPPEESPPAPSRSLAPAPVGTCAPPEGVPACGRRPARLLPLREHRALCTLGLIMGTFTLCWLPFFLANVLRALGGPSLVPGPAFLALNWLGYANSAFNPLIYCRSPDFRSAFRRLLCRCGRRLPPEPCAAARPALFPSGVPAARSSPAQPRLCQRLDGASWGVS
kappa (KOR) opioid receptor, sequence (P41145 whole entry): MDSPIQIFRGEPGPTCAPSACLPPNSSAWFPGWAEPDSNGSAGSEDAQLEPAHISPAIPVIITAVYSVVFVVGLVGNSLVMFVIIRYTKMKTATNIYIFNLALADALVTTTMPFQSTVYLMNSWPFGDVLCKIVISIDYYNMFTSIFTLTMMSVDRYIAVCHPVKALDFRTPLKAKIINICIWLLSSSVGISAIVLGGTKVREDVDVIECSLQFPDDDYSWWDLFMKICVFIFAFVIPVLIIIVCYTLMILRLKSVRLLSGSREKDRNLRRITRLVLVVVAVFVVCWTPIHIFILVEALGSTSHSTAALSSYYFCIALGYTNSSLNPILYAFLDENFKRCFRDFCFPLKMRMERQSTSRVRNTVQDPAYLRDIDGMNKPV

As for `O=C(NCCO)[C@@]12C[C@@H]1[C@@H](n1cnc3c(N[C@H]4C[C@H]5CC[C@@H]4C5)nc(Cl)nc31)[C@H](O)[C@@H]2O` [Compound 37, (1S,2R,3S,4R,5S)-4-(6-(((1R,2S,4S)-bicyclo[2.2.1]heptan-2-yl)amino)-2-chloro-9H-purin-9-yl)-2,3-dihydroxy-N-(2-hydroxyethyl)bicyclo[3.1.0]hexane-1-carboxamide], the Ki at mA3AR ((m), Ki, read-out: A3AR % inhibition or Ki (converted)) was 447 nM; at serotonin receptor 5HT2B, 0.718 µM; at hA2AAR ((h), values without % sign (Ki)), 5400 nM; at mA1AR, 1.56 nM; at hA3AR ((h), Ki) it was 127 ± 29 nM; on hA1AR ((h), Ki) it was 17.6 ± 5.3 nM. In [1], the Ki came out at 2.63 µM. The inhibition at 10 µM on mA2AAR is 23%.
With `COC(=O)c1ncn([C@H]2[C@H](O)[C@H](O)[C@]3(CO)C[C@H]23)n1` [Compound 39, Methyl 1-((1S,2R,3S,4R,5R)-3,4-dihydroxy-5-(hydroxymethyl)bicyclo[3.1.0]hexan-2-yl)-1H-1,2,4-triazole-3-carboxylate], the inhibition at 10 µM at mA3AR (read-out: A3AR % inhibition or Ki) was 15 ± 2%; at hA2AAR, 14 ± 5%; on hA3AR it was 22 ± 4%; on hA1AR it was 6 ± 4%. Further, the Ki at mA1AR is 2990 ± 80 nM; at sigma receptor σ2, 1.72 µM; at adrenergic receptor β3, 1.42 µM; at histamine receptor H3, 4.52 µM.
